Bounds are passed on as bounds.

Series [1] can be described thus: Volume of distribution in mouse at 0.5 mg/kg, iv by LC-MS/MS analysis. As to conditions: in vivo. The class given is ADME, organism-based.
Series [2] in a line: Half life in human liver microsomes. The class given is ADME. On the technique in general: Liver microsomes are vesicles of endoplasmic reticulum, rich in cytochrome P450 enzymes.
Series [3] is described as follows: AUC in mouse at 0.5 mg/kg, iv by LC-MS/MS analysis. The class given is ADME, organism-based. To be noted: in vivo.
A short description of series [4]: Half life in mouse liver microsomes. The class given is ADME.
A short description of series [5]: Half life in mouse at 0.5 mg/kg, iv by LC-MS/MS analysis. The format is ADME, organism-based. To be noted: in vivo.
Series [6] can be described thus: Oral bioavailability in mouse at 3 mg/kg by LC-MS/MS analysis. As to conditions: in vivo. The class given is ADME, organism-based.
Series [7] is described as follows: Clearance in mouse at 0.5 mg/kg, iv by LC-MS/MS analysis. The format is ADME, organism-based. As to conditions: in vivo.
Series [8] can be described thus: Cmax in mouse at 0.5 mg/kg, iv by LC-MS/MS analysis. To be noted: in vivo. More on the design: dose 0.5 mg/kg, route intravenous. The format is ADME, organism-based.

Broadly, the Vd is a proportionality between amount in the body and measured concentration, not a real space. Low values mean confinement near the circulation, high ones extensive tissue distribution. For orientation: half-life means the time needed for the level to fall by half in the phase considered. Broadly, the AUC is the area under the concentration-time curve, a measure of exposure. A high value points to more exposure. Broadly, the bioavailability is the share of a dose that reaches the circulation, judged against a reference dose that is usually intravenous. Higher therefore signals much systemic uptake. The clearance is the volume of plasma or blood freed of the substance per unit of time. A low value points to a low capacity for elimination. A word on the Cmax: it is the peak of the concentration-time curve. With `CCNC(=O)N1CCC(Nc2ncc3ccc(=O)n(C(C)C)c3n2)CC1`, the Vd in series [1] came to 1 L/kg. Also, the half-life in series [2] is 65 min; in series [4], 14 min; in series [5] it was 24 min. Also, in series [3], the AUC was determined as 0.7 µM·h. Also, in series [6], the bioavailability amounted to 43%. For the same compound, the clearance in series [7] was found to be 33 mL/min/kg. This compound also registered a Cmax in series [8] of 1100 nM.
For `CC(C)n1c(=O)ccc2cnc(N[C@H]3CC[C@H](O)CC3)nc21`, the half-life in series [2] was more than 120 min; in series [4] it was 23 min. The compound further displayed a bioavailability in series [6] of 10%.
Regarding `CCNC(=O)N[C@H]1CC[C@@H](Nc2ncc3ccc(=O)n(C(C)C)c3n2)CC1`, the half-life was determined as 16 min in series [2] and 8 min in series [4].
On the same counts, the results for `CC(C)NC(=O)N[C@H]1CC[C@H](Nc2ncc3ccc(=O)n(C4CCCC4)c3n2)CC1` are 7 min and 5 min.
Regarding `CC(C)C(=O)N[C@H]1CC[C@H](Nc2ncc3ccc(=O)n(C(C)C)c3n2)CC1`, the Vd in series [1] was 1.3 L/kg. Besides, the half-life is 44 min in series [2], 19 min in series [4] and 30 min in series [5]. In addition, the AUC in series [3] was found to be 0.7 µM·h. In series [6], this compound returned a bioavailability of 66%. Moreover, the clearance in series [7] worked out at 33 mL/min/kg. The Cmax in series [8] was determined as 1000 nM.
`CC(C)NC(=O)N[C@H]1CC[C@H](Nc2ncc3ccc(=O)n(C(C)C)c3n2)CC1` gave a Vd in series [1] of 1.8 L/kg. Moreover, the values for the half-life in series [2], in series [4] and in series [5] were 76 min, 22 min and 66 min, respectively. Further, the AUC in series [3] stood at 0.8 µM·h. This compound also returned a bioavailability in series [6] of 87%. In addition, the clearance in series [7] was found to be 28 mL/min/kg. In series [8], the highest level (Cmax) was 900 nM.
`CCNC(=O)N[C@H]1CC[C@H](Nc2ncc3ccc(=O)n(C(C)C)c3n2)CC1`: in series [1], the Vd worked out at 1.9 L/kg. In addition, the results for the half-life in series [2], in series [4] and in series [5] were 46 min, 17 min and 18 min, respectively. In series [3], this compound came in with an AUC of 0.3 µM·h. Also, the bioavailability in series [6] was found to be 100%. In addition, in series [7], the clearance was 72 mL/min/kg. This compound returned a maximum concentration (Cmax) in series [8] of 600 nM.
